# Where a name gives a salt, the structure may show the parent alone.
# Target: T1, Thrombin prepared from human plasma (Homo sapiens, UniProt P00734)
# T1 construct: Thrombin used in this test was prepared from human plasma; from tissue; host or cells: human plasma
# Assay: In vitro enzyme assay for thrombin inhibition constants (Chromozym TH substrate, Dixon plot)
# Format: biochemical
# Details: pH 7.8, room temperature
# Protocol: In vitro Enzyme Assays for Determining Inhibition Constants
# The activity of thrombin was measured spectrophotometrically using tosyl-Gly-Pro-Arg-p-nitroanilide acetate (Chromozym TH, Boehringer Mannheim) as a substrate. […] Each compound was dissolved in DMSO to make a 1 mM stock solution and dilutions were made thereof with assay buffer (0.1 M Tris HCl, 0.15 M NaCl, 0.1% polyethylene glycol 8000, pH 7.8). Different concentrations of inhibitor were mixed with […] of thrombin in 0.8 mL of the buffer. The mixture was incubated for 10 min at room temperature before adding 0.2 mL of the substrate to a final concentration of 20 μM. […] A graph for the reciprocal value of initial velocity to the inhibitor concentration was derived from progress curves by fitting the data using a linear regression program.
row,SMILES,Ki
1,"CC(C)(C)OC(=O)CN[C@@H](C(=O)N1CCC[C@H]1C(=O)NCc1ccc(C(=N)N)s1)C(c1ccccc1)c1ccccc1 [Example 28, N-(t-butoxycarbonyl)methyl-D-diphenylalanyl-L-prolyl-[(5-amidino-2-thienyl)methyl]amide.2AcOH]",0.062 nM
2,"C=CCOC(=O)N[C@@H](C(=O)N1CCC[C@H]1C(=O)NCc1ccc(C(=N)N)s1)C(c1ccccc1)c1ccccc1 [Example 21, N-allyloxycarbonyl-D-diphenylalanyl-L-prolyl-[(5-amidino-2-thienyl)methyl]amide.TFA]",0.017 nM
3,"NCc1ccc(CNC(=O)[C@@H]2CCCN2C(=O)[C@H](NS(N)(=O)=O)C(c2ccccc2)c2ccccc2)s1 [Example 2, N-aminosulfonyl-D-diphenylalanyl-L-prolyl-[(5-aminomethyl-2-thienyl)methyl]amide.HCl]",4.7 nM
4,"CC(C)(C)OC(=O)N[C@@H](C(=O)N1CCC[C@H]1C(=O)NCc1ccc(C(=N)N)s1)C(c1ccccc1)c1ccccc1 [Example 7, N-t-butoxycarbonyl-D-diphenylalanyl-L-prolyl-[(5-amidino-2-thienyl)methyl]amide.TFA]",0.007 nM
5,"N=C(N)c1csc(CNC(=O)[C@@H]2CCCN2C(=O)[C@H](NS(N)(=O)=O)C(c2ccccc2)c2ccccc2)n1 [Example 37, N-aminosulfonyl-D-diphenylalanyl-L-prolyl-[(4-amidino-2-thiazolyl)methyl]amide.TFA]",0.12 nM
6,"CS(=O)(=O)N[C@@H](C(=O)N1CC[C@H]1C(=O)NCc1ccc(C(=N)N)s1)C(c1ccccc1)c1ccccc1 [Example 32, N-methylsulfonyl-D-diphenylalanyl-L-azetidine-2-carboxyl-[(5-amidino-2-thienyl)methyl]amide.TFA]",0.053 nM
7,"CS(=O)(=O)N[C@@H](C(=O)N1CCC[C@H]1C(=O)NCc1ccc(/C(N)=N/N)s1)C(c1ccccc1)c1ccccc1 [Example 4, N-methylsulfonyl-D-diphenylalanyl-L-prolyl-[(5-amidrazono-2-thienyl)methyl]amide.TFA]",0.53 nM
8,"Cn1c(CNC(=O)[C@@H]2CCCN2C(=O)[C@H](NS(C)(=O)=O)C(c2ccccc2)c2ccccc2)ccc1C(=N)N [Example 38, N-methylsulfonyl-D-diphenylalanyl-L-prolyl-[(5-amidino-1-methyl-2-pyrrolyl)methyl]amide.TFA]",0.23 nM
9,"NN=C(N)c1ccc(CNC(=O)[C@@H]2CCCN2C(=O)[C@H](N)C(c2ccccc2)c2ccccc2)s1 [Example 43, D-diphenylalanyl-L-prolyl-[(5-amidrazono-2-thienyl)methyl]amide.2TFA]",9.1 nM
10,"CC(C)(C)OC(=O)N[C@@H](C(=O)N1CCC[C@H]1C(=O)NCc1ccc(C(N)=NN)s1)C(c1ccccc1)c1ccccc1 [Example 42, N-Boc-D-Diphenylalanyl-L-prolyl-[(5-amidrazono-2-thienyl)methyl]amide.TFA]",84 nM
11,"CS(=O)(=O)N[C@@H](C(=O)N1CCC[C@H]1C(=O)NCc1ccc(C(=N)N)o1)C(c1ccccc1)c1ccccc1 [Example 34, N-methylsulfonyl-D-diphenylalanyl-L-prolyl-[(5-amidino-2-furanyl)methyl]amide.TFA]",1.4 nM
12,"N=C(N)c1ccc(CNC(=O)[C@@H]2CCCN2C(=O)[C@H](NS(=O)(=O)O)C(c2ccccc2)c2ccccc2)s1 [Example 31, N-hydroxysulfonyl-D-diphenylalanyl-L-prolyl-[(5-amidino-2-thienyl)methyl]amide.TFA]",0.1 nM
13,"CN(CC(=O)O)[C@@H](C(=O)N1CCC[C@H]1C(=O)NCc1ccc(C(=N)N)s1)C(c1ccccc1)c1ccccc1 [Example 30, N-methyl-N-carboxymethyl-D-diphenylalanyl-L-prolyl-[(5-amidino-2-thienyl)methyl]amide.2TFA]",0.003 nM
14,"N=C(N)c1ccc(CNC(=O)[C@@H]2CCCN2C(=O)[C@H](NS(=O)(=O)Cc2ccccc2)C(c2ccccc2)c2ccccc2)s1 [Example 6, N-benzylsulfonyl-D-diphenylalanyl-L-prolyl-[(5-amidino-2-thienyl)methyl]amide.TFA]",0.021 nM

# Second part, the compound after the results:
row,Ki,SMILES
1,0.04 nM,"CS(=O)(=O)N[C@@H](C(=O)N1CCC[C@H]1C(=O)NCc1cc(C(=N)N)cs1)C(c1ccccc1)c1ccccc1 [Example 12, N-methylsulfonyl-D-diphenylalanyl-L-prolyl-[(4-amidino-2-thienyl)methyl]amide.TFA]"
2,0.41 nM,"CS(=O)(=O)N[C@@H](C(=O)N1CCC[C@H]1C(=O)NCc1csc(C(=N)NN)c1)C(c1ccccc1)c1ccccc1 [Example 17, N-methylsulfonyl-D-diphenylalanyl-L-prolyl-[(5-amidrazono-3-thienyl)methyl]amide.TFA]"
3,0.045 nM,"CS(=O)(=O)N[C@@H](C(=O)N1CCC[C@H]1C(=O)NCc1csc(C(=N)N)c1)C(c1ccccc1)c1ccccc1 [Example 16, N-methylsulfonyl-D-diphenylalanyl-L-prolyl-[(5-amidino-3-thienyl)methyl]amide.TFA]"
4,6.21 nM,"CS(=O)(=O)N[C@@H](C(=O)N1CCC[C@H]1C(=O)NCc1csc(CN)c1)C(c1ccccc1)c1ccccc1 [Example 18, N-methylsulfonyl-D-diphenylalanyl-L-prolyl-[(5-aminomethyl-3-thienyl)methyl]amide.TFA]"
5,13.7 nM,"COC(=O)N[C@@H](C(=O)N1CCC[C@H]1C(=O)NCc1csc(C(=N)N)c1)C1CCCCC1 [Example 27, N-methoxycarbonyl-D-cyclohexylglycinyl-L-prolyl-[(5-amidino-3-thienyl)methyl]amide.TFA]"
6,0.12 nM,"Cc1sc(CNC(=O)[C@@H]2CCCN2C(=O)[C@H](NS(C)(=O)=O)C(c2ccccc2)c2ccccc2)cc1C(=N)N [Example 33, N-methylsulfonyl-D-diphenylalanyl-L-prolyl-[(4-amidino-5-methyl-2-thienyl)methyl]amide.TFA]"
7,0.065 nM,"N=C(N)c1ccc(CNC(=O)[C@@H]2CCCN2C(=O)[C@@H](Cc2ccc(Cl)c(Cl)c2)NS(N)(=O)=O)s1 [Example 9, N-aminosulfonyl-D-3,4-dichlorophenylalanyl-L-prolyl-[(5-amidino-2-thienyl)methyl]amide.TFA]"
8,395 nM,"CS(=O)(=O)N[C@H](Cc1ccccc1)C(=O)N1CCC[C@H]1C(=O)NCc1ccc(C(N)=NN)s1 [Example 44, N-methylsulfonyl-D-phenylalanyl-L-prolyl-[(5-amidrazono-2-thienyl)methyl]amide.TFA]"
9,0.052 nM,"COC(=O)N[C@@H](C(=O)N1CCC[C@H]1C(=O)NCc1ccc(C(=N)N)s1)C(C1CCCCC1)C1CCCCC1 [Example 10, N-methoxycarbonyl-D-dicyclohexylalanyl-L-prolyl-[(5-amidino-2-thienyl)methyl]amide.TFA]"
10,0.02 nM,"CS(=O)(=O)N[C@H](CC1CCCCC1)C(=O)N1CCC[C@H]1C(=O)NCc1ccc(C(=N)N)s1 [Example 22, N-methylsulfonyl-D-cyclohexylalanyl-L-prolyl-[(5-amidino-2-thienyl)methyl]amide.TFA]"
11,0.011 nM,"N=C(N)c1ccc(CNC(=O)[C@@H]2CCCN2C(=O)[C@H](NS(=O)(=O)NC2CCCCC2)C(c2ccccc2)c2ccccc2)s1 [Example 20, N-cyclohexylsulfamoyl-D-diphenylalanyl-L-prolyl-[(5-amidino-2-thienyl)methyl]amide.TFA]"
12,0.073 nM,"CS(=O)(=O)N[C@@H](C(=O)N1CCC[C@H]1C(=O)NCc1cc(CN)cs1)C(c1ccccc1)c1ccccc1 [Example 13, N-methylsulfonyl-D-diphenylalanyl-L-prolyl-[(4-aminomethyl-2-thienyl)methyl]amide.HCl]"
13,0.03 nM,"N=C(N)c1ccc(CNC(=O)[C@@H]2CCCN2C(=O)[C@@H](CC2CCCCC2)NS(=O)(=O)Cc2ccccc2)s1 [Example 23, N-benzylsulfonyl-D-cyclohexylalany-L-prolyl-[(5-amidino-2-thienyl)methyl]amide.TFA]"
14,0.053 nM,"CNS(=O)(=O)N[C@H](CC1CCCCC1)C(=O)N1CCC[C@H]1C(=O)NCc1ccc(C(=N)N)s1 [Example 25, N-methylsulfamoyl-D-cyclohexylalanyl-L-prolyl-[(5-amidino-2-thienyl)methyl]amide.TFA]"
15,0.024 nM,"N=C(N)c1ccc(CNC(=O)[C@@H]2CCCN2C(=O)[C@@H](CC2CCCCC2)NS(=O)(=O)NC2CCCCC2)s1 [Example 24, N-cyclohexylsulfamoyl-D-cyclohexylalanyl-L-prolyl-[(5-amidino-2-thienyl)methyl]amide.TFA]"
16,4.6 nM,"CS(=O)(=O)N[C@@H](C(=O)N1CCC[C@H]1C(=O)NCc1csc(C(=N)N)c1)C1CCCCC1 [Example 26, N-methylsulfonyl-D-cyclohexylglycinyl-L-prolyl-[(5-amidino-3-thienyl)methyl]amide.TFA]"
